The record followed here is patent US20160271513A1, “DRYING TECHNIQUES FOR MICROFLUIDIC AND OTHER SYSTEMS” (PRESIDENT AND FELLOWS OF HARVARD COLLEGE, priority 2013, published 2016).

For data set [1] the following is noted: room temperature.
Protocol: To calculate the time available for crystalline nuclei to form, the saturation concentration of NaCl was measured in water at room temperature to be 6.3 mol/l.
Data set [2] in a line: Structure and storage stability of spray-dried drug nanoparticles by X-ray diffraction. In kind it is physicochemical. How it is done:
While the characteristic size below which particles were entirely amorphous is system-specific, the suppression of nucleation in small droplets relies on a generally applicable physical principle. […] To test this expectation, the structure of spray-dried clotrimazole, estradiol, and danazol was examined using X-ray diffraction (XRD). To keep the nucleation time the same, they were dissolved at 10% of their saturation concentration. In agreement with the above, these spray-dried drug nanoparticles were amorphous.
Production of amorphous drugs may require the addition of excipients. However, despite the presence of excipients, these drugs tend to crystallize with time leading to a change in their dissolution kinetics; this prevents their application in industry. […] These drugs all had glass transition temperatures, Tg, above room temperature; they were therefore glasses at room temperature.
XRD. X-ray diffraction was performed on spray-dried nanoparticles collected onto a one-side polished (100) Si wafer for 11 h. Measurements were acquired on a XDS2000 instrument (Scintac Inc.) using a Cu Kα (K alpha) source with a wavelength λ=0.154056 nm. The angle 2θ was varied between 2 and 70° at a rate of 1°/min.
It was expected to crystallize over time if stored at room temperature even if it is initially fully amorphous.
To test if the nebulator also allowed production of amorphous nanoparticles from materials with a Tg […] room temperature, which would be a glass at room temperature, clotrimazole, estradiol, and danazol, all poorly water soluble drugs with Tgs above 20° C., were spry dried. The size of the spray dried nanoparticles was determined by the initial solute concentration and the initial drop size. To ensure similar sizes of the spray dried nanoparticles, the initial solute concentration was fixed to 5 mg/ml. […] Thus, the nebulator allowed formulation of poorly water soluble drugs as amorphous nanoparticles.
To ease the handling drugs, fenofibrate was co-spray dried with different types of excipients. […] Four different types of Pluronics were compared: F68 and F127 are solids at room temperature and Pluronics P84 and P104 are pastes at room temperature.
By analogy to Pluronics, drugs spray dried from solutions containing equal weights of drugs and excipients were crystalline. By contrast, increasing the weight fraction of PVP five-fold results in XRD-amorphous danazol nanoparticles, in agreement to danazol nanoparticles formulated using the microfluidic spray drier.
To maintain the stability of spray dried amorphous nanoparticles and facilitate their handling by embedding them in an excipient matrix, PVP was deposited on a Si-wafer and subsequently drugs were spray dried into the PVP matrix. […] However, because excipients were not required to make the drug amorphous but rather to ease their handling, this procedure is generally applicable to the formulation of many different types of drugs, by contrast to the solid dispersions where the appropriate excipients must be selected for each system individually. Thus, the nebulator used in this example allowed the formulation of amorphous drug nanoparticles that optionally could be sprayed into an excipient matrix to facilitate their handling.

Data set [3] is described as follows: Crystalline fraction of spray-dried nanoparticles by differential scanning calorimetry. Type of data set: physicochemical. How it is done: The size of inorganic nanoparticles can influence their structure.
DSC. Differential scanning calorimetry was performed on spray-dried nanoparticles that are collected in an aluminium based Tzero DSC pan. To obtain sufficient amounts of samples, nanoparticles were collected for 11 h before being sealed in the DSC pan with a Tzero Hermetic Lid (TA Instruments). DSC was measured on a DSC Q200 at a nitrogen flow rate of 50 ml/min (TA instruments); the temperature was increased from 40° C. to 85° C. at a rate of 1° C./min and subsequently the sample was cooled to 25° C. at the same rate. To quantify the amount of nanoparticles, thermogravimetry analysis (TGA) was performed on these samples after completing the DSC analysis. For this, the hermetically sealed pans were opened and TGA was performed on these samples by increasing the temperature from 25° C. to 400° C. at a rate of 10° C./min under a N2 flow of 10 ml/min (Q5000, TA instrument). The absolute mass loss was measured between 100° C. and 300° C. and the DSC data was normalized accordingly.

The mark [4] stands for this setting: spray-dried from ethanol without excipients, 0.28 MPa.
[5] abbreviates: spray-dried without excipients, stored under ambient conditions.

`[Cl-].[Na+]` [NaCl]: in data set [1], the “saturation concentration of NaCl in water” value was 6.3 mol/L.
On to `Clc1ccccc1C(c1ccccc1)(c1ccccc1)n1ccnc1` [clotrimazole], for which the “structure of spray-dried nanoparticles (XRD)” value in data set [2] (setting [4]) was “amorphous”. In addition, the crystallization on storage entry in data set [2] (setting [5]) is reported as “did not crystallize if stored under ambient conditions for at least four weeks”.
Regarding `C#C[C@]1(O)CC[C@H]2[C@@H]3CCC4=Cc5oncc5C[C@]4(C)[C@H]3CC[C@@]21C` [danazol], the “structure of spray-dried nanoparticles (XRD)” value is listed as “XRD-amorphous” in data set [2] (co-spray dried with PVP, PVP five times the drug); “contain a significant fraction of crystalline regions” in data set [2] (co-spray dried with Pluronics F68, F127, P84 or P104, equal weights); “XRD-amorphous” in data set [2] (pure drug spray dried onto a PVP matrix); “amorphous” in data set [2] (setting [4]). In addition, the crystallization on storage result in data set [2] (co-spray dried with equal weight of Pluronics (F68, F127, P84, P104), two weeks under ambient conditions) is given as “this fraction markedly increases after storing the sample for two weeks under ambient conditions”; in data set [2] (setting [5]) it was “did not crystallize if stored under ambient conditions for at least four weeks”.
For the molecule `CC(C)OC(=O)C(C)(C)Oc1ccc(C(=O)c2ccc(Cl)cc2)cc1` [fenofibrate], the “crystalline fraction from area of the melting peak” value in data set [3] (25 nm large particles) was found to be 6 vol %; in data set [3] (particles with a diameter of 20 nm), 3 vol %.
